The NIST ThermoML archive (doi:10.1021/acs.jced.9b00846)

Conditions: Liquid, Vibrating tube method

CC(C)CC(C)C [2,4-dimethylpentane]
Conditions | mass density [kg/m3]
283.15 K, 95 kPa | 681.7
283.15 K, 4961 kPa | 686.3
283.15 K, 9969 kPa | 690.9
283.15 K, 14980 kPa | 695.1
283.15 K, 19985 kPa | 699.1
283.15 K, 25039 kPa | 702.9
283.15 K, 30016 kPa | 706.5
283.15 K, 35089 kPa | 710
283.15 K, 40016 kPa | 713.3
283.15 K, 45012 kPa | 716.4
283.15 K, 49972 kPa | 719.5
283.15 K, 54980 kPa | 722.4
283.15 K, 59931 kPa | 725.3
283.15 K, 65047 kPa | 728.1
288.15 K, 127 kPa | 677.3
288.15 K, 4984 kPa | 682.2
288.15 K, 9987 kPa | 686.8
288.15 K, 14976 kPa | 691.2
288.15 K, 19996 kPa | 695.3
288.15 K, 24895 kPa | 699.2
288.15 K, 30002 kPa | 703
288.15 K, 34983 kPa | 706.5
288.15 K, 40000 kPa | 709.9
288.15 K, 44974 kPa | 713.1
288.15 K, 49950 kPa | 716.2
288.15 K, 55010 kPa | 719.3
288.15 K, 60065 kPa | 722.2
288.15 K, 64958 kPa | 725
293.15 K, 83 kPa | 672.8
293.15 K, 4982 kPa | 677.9
293.15 K, 9969 kPa | 682.7
293.15 K, 15059 kPa | 687.3
293.15 K, 19914 kPa | 691.5
293.15 K, 25056 kPa | 695.6
293.15 K, 29936 kPa | 699.3
293.15 K, 34976 kPa | 703
293.15 K, 39994 kPa | 706.4
293.15 K, 44992 kPa | 709.8
293.15 K, 50030 kPa | 713
293.15 K, 54953 kPa | 716
293.15 K, 59933 kPa | 719
293.15 K, 65045 kPa | 721.9
298.15 K, 92 kPa | 668.3
298.15 K, 4941 kPa | 673.6
298.15 K, 9982 kPa | 678.6
298.15 K, 14991 kPa | 683.3
298.15 K, 19963 kPa | 687.6
298.15 K, 25048 kPa | 691.8
298.15 K, 29972 kPa | 695.7
298.15 K, 34945 kPa | 699.4
298.15 K, 39958 kPa | 702.9
298.15 K, 45007 kPa | 706.4
298.15 K, 49963 kPa | 709.6
298.15 K, 55008 kPa | 712.8
298.15 K, 60003 kPa | 715.8
298.15 K, 65017 kPa | 718.8
303.15 K, 72 kPa | 663.8
303.15 K, 4969 kPa | 669.3
303.15 K, 9974 kPa | 674.5
303.15 K, 14963 kPa | 679.3
303.15 K, 19981 kPa | 683.9
303.15 K, 25047 kPa | 688.2
303.15 K, 29954 kPa | 692.1
303.15 K, 34987 kPa | 695.9
303.15 K, 39964 kPa | 699.6
303.15 K, 45006 kPa | 703.1
303.15 K, 49991 kPa | 706.4
303.15 K, 55060 kPa | 709.7
303.15 K, 59991 kPa | 712.8
303.15 K, 65054 kPa | 715.8
308.15 K, 100 kPa | 659.4
308.15 K, 4987 kPa | 665.1
308.15 K, 9965 kPa | 670.4
308.15 K, 15040 kPa | 675.5
308.15 K, 19960 kPa | 680.1
308.15 K, 24964 kPa | 684.4
308.15 K, 30076 kPa | 688.7
308.15 K, 34985 kPa | 692.5
308.15 K, 39972 kPa | 696.2
308.15 K, 44972 kPa | 699.8
308.15 K, 49955 kPa | 703.2
308.15 K, 54996 kPa | 706.5
308.15 K, 60063 kPa | 709.7
308.15 K, 65021 kPa | 712.7
313.15 K, 108 kPa | 654.9
313.15 K, 5004 kPa | 660.8
313.15 K, 10013 kPa | 666.4
313.15 K, 15049 kPa | 671.6
313.15 K, 19963 kPa | 676.3
313.15 K, 25062 kPa | 680.9
313.15 K, 29960 kPa | 685
313.15 K, 34942 kPa | 689
313.15 K, 40039 kPa | 692.9
313.15 K, 45017 kPa | 696.6
313.15 K, 50065 kPa | 700.1
313.15 K, 54977 kPa | 703.4
313.15 K, 59923 kPa | 706.6
313.15 K, 64996 kPa | 709.7
318.15 K, 110 kPa | 650.2
318.15 K, 5061 kPa | 656.5
318.15 K, 9957 kPa | 662.2
318.15 K, 15002 kPa | 667.6
318.15 K, 19980 kPa | 672.5
318.15 K, 25013 kPa | 677.1
318.15 K, 30045 kPa | 681.5
318.15 K, 34965 kPa | 685.6
318.15 K, 39938 kPa | 689.5
318.15 K, 44971 kPa | 693.2
318.15 K, 49989 kPa | 696.8
318.15 K, 55009 kPa | 700.2
318.15 K, 59952 kPa | 703.5
318.15 K, 65056 kPa | 706.7
323.15 K, 121 kPa | 645.6
323.15 K, 5001 kPa | 652.1
323.15 K, 10007 kPa | 658.1
323.15 K, 15037 kPa | 663.6
323.15 K, 19969 kPa | 668.7
